Literature values in patent publication US9861098B2, “Method for producing agrichemical-containing resin composition” (Nippon Soda Co., Ltd., priority 2008, dated 2018).

conditions: 20° C.

SMILES	water solubility [ppm]
CN1COCN(Cc2cnc(Cl)s2)/C1=N\[N+](=O)[O-] [thiamethoxam]	4100
N#C/N=C1\SCCN1Cc1ccc(Cl)nc1 [thiacloprid]	185
CN/C(=N\[N+](=O)[O-])NCc1cnc(Cl)s1 [clothianidin]	327
COP(=O)(NC(C)=O)SC (stereo not drawn) [acephate]	790000
CNC(=O)Oc1cccc2c1OC(C)(C)O2 [bendiocarb]	280
CNC(=O)ON=C(C)SC [methomyl]	58000
CCN(Cc1ccc(Cl)nc1)/C(=C/[N+](=O)[O-])NC [nitenpyram]	590000
CCSCc1ccccc1OC(=O)NC [ethiofencarb]	1800

same assay, conditions: 25° C.

SMILES	water solubility [ppm]
C/C(=N\C#N)N(C)Cc1ccc(Cl)nc1 [acetamiprid]	4250
